From US11318137B2, “Quinazoline compounds as modulators of Ras signaling” (VANDERBILT UNIVERSITY, priority 2017, dated 2022)

Legend:
Son of Sevenless (SOS) = molecular target: T1, Son of Sevenless (SOS) (Homo sapiens, UniProt Q07889); assay: Binding to SOS, fluorescence polarization anisotropy (FPA) displacement of FITC-conjugated probe; conditions: binding affinity calculated from IC50 of FITC-probe displacement, read-out: Binding affinities (binding affinity to SOS)
T1 sequence (Q07889 564-1049 limits assumed): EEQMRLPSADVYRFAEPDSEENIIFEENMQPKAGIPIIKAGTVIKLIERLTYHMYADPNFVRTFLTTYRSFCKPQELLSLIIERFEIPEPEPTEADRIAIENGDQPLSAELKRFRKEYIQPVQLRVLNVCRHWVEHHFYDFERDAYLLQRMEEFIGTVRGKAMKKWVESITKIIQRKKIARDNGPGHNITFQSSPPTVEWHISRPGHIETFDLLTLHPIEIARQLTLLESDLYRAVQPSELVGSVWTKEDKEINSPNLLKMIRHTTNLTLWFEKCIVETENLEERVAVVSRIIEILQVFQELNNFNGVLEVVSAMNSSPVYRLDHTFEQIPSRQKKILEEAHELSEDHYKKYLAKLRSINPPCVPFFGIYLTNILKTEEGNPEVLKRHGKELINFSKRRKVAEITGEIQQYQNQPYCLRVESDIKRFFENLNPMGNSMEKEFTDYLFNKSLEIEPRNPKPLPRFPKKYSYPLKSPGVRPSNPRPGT
Method: Compounds of the present invention were tested for their ability to the Ras guanine exchange factor (GEF) Son of Sevenless (SOS). Binding to SOS was measured using a Fluorescence polarization anisotropy (FPA) assay that assesses the ability of a test compound to displace a fluorescent FITC-conjugated compound. Briefly, the labeled probe compound is incubated with SOS in buffer. Changes in anisotropy indicative of displacement of the labeled probe for a test compound are assessed over a dose range of test compound. Data was analyzed by plotting fluorescence anisotropy values as a function of compound concentration. IC50 values were determined using a four-parameter dose-response (variable slope) and binding affinities were calculated from this IC50 value. This assay is performed in a method analogous to the assay disclosed in: Burns, M. C.; Sun, Q.; Daniels, R. N.; Camper, D. V.; Kennedy, J. P.; Phan, J.; Olejniczak, E. O.; Lee, T.; Waterson, A. G.; Rossanese, O. W.; Fesik, S. W. “Approach for targeting Ras with small molecules that activate SOS-mediated nucleotide exchange” Proc. Natl. Acad. Sci. 2014; 11(9): 3401-3406. PMCID: PMC3948241.

[1] = molecular target: T2, SOS-mediated nucleotide exchange on Ras (Homo sapiens, UniProt Q07889); assay: SOS-mediated nucleotide exchange on Ras (BODIPY-GDP fluorescence); format: biochemical; conditions: Ras loaded with BODIPY-GDP, GTP and SOS added; EC50 from derived exchange rates
T2 sequence (Q07889 1-1333): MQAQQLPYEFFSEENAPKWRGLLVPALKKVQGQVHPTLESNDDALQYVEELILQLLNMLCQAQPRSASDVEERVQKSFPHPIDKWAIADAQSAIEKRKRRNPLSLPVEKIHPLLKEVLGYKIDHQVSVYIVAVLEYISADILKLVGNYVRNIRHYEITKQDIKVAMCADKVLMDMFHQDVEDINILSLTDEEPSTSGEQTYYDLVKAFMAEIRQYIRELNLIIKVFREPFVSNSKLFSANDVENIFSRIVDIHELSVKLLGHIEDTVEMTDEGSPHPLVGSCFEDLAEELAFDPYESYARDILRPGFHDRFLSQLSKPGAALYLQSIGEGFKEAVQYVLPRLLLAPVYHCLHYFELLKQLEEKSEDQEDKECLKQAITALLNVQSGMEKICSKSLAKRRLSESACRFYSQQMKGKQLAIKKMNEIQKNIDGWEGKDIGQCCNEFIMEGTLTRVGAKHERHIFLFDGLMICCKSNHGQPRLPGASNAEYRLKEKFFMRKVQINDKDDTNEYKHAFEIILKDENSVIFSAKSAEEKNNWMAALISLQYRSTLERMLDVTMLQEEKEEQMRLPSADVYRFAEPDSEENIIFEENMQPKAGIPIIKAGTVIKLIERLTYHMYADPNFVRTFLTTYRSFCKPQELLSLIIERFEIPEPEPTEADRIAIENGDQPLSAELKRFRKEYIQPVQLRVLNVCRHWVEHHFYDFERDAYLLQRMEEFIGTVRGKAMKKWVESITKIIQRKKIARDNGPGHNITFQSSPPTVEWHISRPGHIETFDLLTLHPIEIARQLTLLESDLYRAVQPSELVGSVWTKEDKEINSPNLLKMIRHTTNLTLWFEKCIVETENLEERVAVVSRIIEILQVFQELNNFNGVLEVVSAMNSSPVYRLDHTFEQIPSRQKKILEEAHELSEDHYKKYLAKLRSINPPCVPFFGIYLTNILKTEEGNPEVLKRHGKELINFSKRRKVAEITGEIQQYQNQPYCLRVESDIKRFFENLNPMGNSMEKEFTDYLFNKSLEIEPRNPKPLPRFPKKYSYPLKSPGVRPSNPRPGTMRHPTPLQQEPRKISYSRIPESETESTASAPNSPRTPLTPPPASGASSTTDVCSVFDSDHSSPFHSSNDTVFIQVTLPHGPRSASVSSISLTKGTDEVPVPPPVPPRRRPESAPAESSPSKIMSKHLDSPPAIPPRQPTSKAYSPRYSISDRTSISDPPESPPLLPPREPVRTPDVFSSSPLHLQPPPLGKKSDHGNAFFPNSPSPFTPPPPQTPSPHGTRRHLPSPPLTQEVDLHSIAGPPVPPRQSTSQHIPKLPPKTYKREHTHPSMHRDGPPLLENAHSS
Method: A. SOS-Mediated Nucleotide Exchange on Ras
Compounds of the present invention were tested for their ability to modify the rate at which Ras exchanges a labeled nucleotide guanosine diphosphate (GDP) analog for guanosine triphosphate (GTP). Briefly, test compounds, then GTP and the Ras GEF SOS (Son of Sevenless) are added to a buffered solution containing Ras protein loaded with BODIPY-GDP. Changes in fluorescence indicating exchange of the labeled GDP for GTP are monitored over time. Raw fluorescence data was fit to a single exponential decay function and derived rates were plotted as mean values. EC50 values were calculated by plotting mean derived rates as a function of compound concentration and fit using a four-parameter dose-response curve. Full assay details are disclosed in: Burns, M. C.; Sun, Q.; Daniels, R. N.; Camper, D. V.; Kennedy, J. P.; Phan, J.; Olejniczak, E. O.; Lee, T.; Waterson, A. G.; Rossanese, O. W.; Fesik, S. W. “Approach for targeting Ras with small molecules that activate SOS-mediated nucleotide exchange” Proc. Natl. Acad. Sci. 2014; 11(9): 3401-3406. PMCID: PMC3948241.

| Ki (Son of Sevenless (SOS)) | EC50 [1] | SMILES |
| --- | --- | --- |
| > 5 µM | 1 to 5 µM | CCC(Nc1nc(Nc2ccc(F)c(Cl)c2)nc2ccccc12)C(C)C (centres unmarked) [Example 2, N^2-(3-chloro-4-fluorophenyl)-N^4-(2-methylpentan-3-yl)quinazoline-2,4-diamine] |
| > 5 µM | 1 to 5 µM | C[C@@H](Nc1nc(NCC2CCCC2)nc2ccccc12)C1CC1 [Example 3, (R)—N^2-(cyclopentylmethyl)-N^4-(1-cyclopropylethyl)quinazoline-2,4-diamine] |
| > 5 µM | 1 to 5 µM | C[C@@H](Nc1nc(NCC2CCCCC2)nc2ccccc12)C1CC1 [Example 4, (R)—N^2-(cyclohexylmethyl)-N^4-(1-cyclopropylethyl)quinazoline-2,4-diamine] |
| > 5 µM | < 1 µM | Clc1cc(Cl)cc(Nc2nc(NCc3cccs3)c3ccccc3n2)c1 [Example 9, N^2-(3,5-dichlorophenyl)-N^4-(thiophen-2-ylmethyl)quinazoline-2,4-diamine] |
| > 5 µM | 1 to 5 µM | Fc1ccc(CNc2nc(NCc3ccco3)c3ccccc3n2)cc1 [Example 14, N^2-(4-fluorobenzyl)-N^4-(furan-2-ylmethyl)quinazoline-2,4-diamine] |
| > 5 µM | 5 to 30 µM | C[C@@H](Nc1nc(NCc2ccc(F)cc2F)nc2ccccc12)C1CC1 [Example 19, (R)—N^4-(1-cyclopropylethyl)-N^2-(2,4-difluorobenzyl)quinazoline-2,4-diamine] |
| > 5 µM | 1 to 5 µM | Fc1ccc(Nc2nc(NC(C3CC3)C3CC3)c3ccccc3n2)cc1Cl [Example 21, N^2-(3-chloro-4-fluorophenyl)-N^4-(dicyclopropylmethyl)quinazoline-2,4-diamine] |
| > 5 µM | 1 to 5 µM | C[C@@H](Nc1nc(Nc2cc(F)cc(C#N)c2)nc2ccccc12)C1CC1 [Example 23, (R)-3-((4-((1-cyclopropylethyl)amino)quinazolin-2-yl)amino)-5-fluorobenzonitrile] |
| > 5 µM | 1 to 5 µM | Cc1cc(CNc2nc(N[C@H](C)C3CC3)c3ccccc3n2)ccc1F [Example 24, (R)—N^4-(1-cyclopropylethyl)-N^2-(4-fluoro-3-methylbenzyl)quinazoline-2,4-diamine] |
| > 5 µM | 5 to 30 µM | COc1cccc(CNc2nc(N[C@H](C)C3CC3)c3ccccc3n2)c1 [Example 27, (R)—N^4-(1-cyclopropylethyl)-N^2-(3-methoxybenzyl)quinazoline-2,4-diamine] |
| > 5 µM | 1 to 5 µM | Clc1ccc(Nc2nc(NCc3ccco3)c3ccccc3n2)cc1Cl [Example 32, N^2-(3,4-dichlorophenyl)-N^4-(furan-2-ylmethyl)quinazoline-2,4-diamine] |
| > 5 µM | 5 to 30 µM | CC[C@@H](Nc1nc(Nc2ccc(F)c(Cl)c2)nc2ccccc12)C1CC1 [Example 34, (R)—N^2-(3-chloro-4-fluorophenyl)-N^4-(1-cyclopropylpropyl)quinazoline-2,4-diamine] |
| > 5 µM | 1 to 5 µM | CC[C@@H](Nc1nc(Nc2cc(F)cc(F)c2)nc2ccccc12)C1CC1 [Example 35, (R)—N^4-(1-cyclopropylpropyl)-N^2-(3,5-difluorophenyl)quinazoline-2,4-diamine] |
| > 5 µM | 1 to 5 µM | CCC[C@@H](Nc1nc(Nc2ccc(F)c(Cl)c2)nc2ccccc12)C1CC1 [Example 36, (R)—N^2-(3-chloro-4-fluorophenyl)-N^4-(1-cyclopropylbutyl)quinazoline-2,4-diamine] |
| > 5 µM | 1 to 5 µM | C[C@@H](Nc1nc(Nc2ccc(F)c(Cl)c2)nc2ccccc12)c1cccs1 [Example 37, (R)—N^2-(3-chloro-4-fluorophenyl)-N^4-(1-(thiophen-2-yl)ethyl)quinazoline-2,4-diamine] |
| > 5 µM | 1 to 5 µM | C[C@@H](Nc1nc(Nc2cc(F)cc(F)c2)nc2ccccc12)c1cccs1 [Example 38, (R)—N^2-(3,5-difluorophenyl)-N^4-(1-(thiophen-2-yl)ethyl)quinazoline-2,4-diamine] |
| > 5 µM | 1 to 5 µM | C[C@@H](Nc1nc(Nc2ccc(F)c(Cl)c2)nc2ccccc12)C(C)(C)C [Example 40, (R)—N^2-(3-chloro-4-fluorophenyl)-N^4-(3,3-dimethylbutan-2-yl)quinazoline-2,4-diamine] |
| > 5 µM | 1 to 5 µM | CC[C@@H](Nc1nc(Nc2ccc(F)c(Cl)c2)nc2ccccc12)C1CCC1 [Example 42, (R)—N^2-(3-chloro-4-fluorophenyl)-N^4-(1-cyclobutylpropyl)quinazoline-2,4-diamine] |
| 1 to 5 µM | 1 to 5 µM | C[C@@H](Nc1nc(Nc2ccc(F)c(Cl)c2)nc2c(N3CCNCC3)cccc12)C1CC1 [Example 52, (R)—N^2-(3-chloro-4-fluorophenyl)-N^4-(1-cyclopropylethyl)-8-(piperazin-1-yl)quinazoline-2,4-diamine] |
| > 5 µM | 5 to 30 µM | C[C@@H](Nc1nc(Nc2ccc(F)c(Cl)c2)nc2c(NCCCN(C)C)cccc12)C1CC1 [Example 53, (R)—N^2-(3-chloro-4-fluorophenyl)-N^4-(1-cyclopropylethyl)-N^8-(3-(dimethylamino)propyl)quinazoline-2,4,8-triamine] |
| – | 5 to 30 µM | C[C@@H](Nc1nc(NCc2cccc(Cl)c2F)nc2c(C3=CCNCC3)cccc12)C(C)(C)C [Example 129, (R)—N^2-(3-chloro-2-fluorobenzyl)-N^4-(3,3-dimethylbutan-2-yl)-8-(1,2,3,6-tetrahydropyridin-4-yl)quinazoline-2,4-diamine] |
